Test system: Sprague Dawly rats
Experiment: Fat-Binding Evaluation via Paper Staining
Type: in vivo
Settings: male rats, chow diet with 15 percent lard; lipase inhibitor (Orlistat) 0.04 percent by weight, no polymer; average of 24 experiments
Experimental: The model consists of male, Sprague Dawly rats, 160 g, housed individually in wire mesh cages. They were acclimated to the facility for six days, during which time they were fed a chow based diet supplemented with 15 percent lard by weight. Feed and water were provided ad libitum. The animals were then randomly assigned to groups of four and fed test diets for three days. The test diet was also a chow based feed. A lipase inhibitor (Orlistat) was added at 0.04 percent by weight and the polymer was added at 0.30 percent by weight. They were mixed in the feed as a powder followed by the addition of the supplemented fat in the form of lard at 15 percent by weight. During the final 24 hours of the treatment period an 8.5″×11″ sheet of white paper was placed beneath each cage. One inch squares were drawn on the paper creating a grid of 80 squares. When oil in the form of unabsorbed dietary triglyceride seeps from the stool, it stains the paper. This can be readily discerned from urine if the papers were allowed to dry for six hours. The oil stains confer translucence to the paper. The squares that contain these oil stains were counted and expressed as a percentage of total area stained.

## CCCCCCCCCCC[C@@H](C[C@@H]1OC(=O)[C@H]1CCCCCC)OC(=O)[C@H](CC(C)C)NC=O [Control 2, Orlistat]
  Percentage of Paper Stained: 39 ± 6%

Source: patent publication US7048917B1, “Fat-binding polymers” (Genzyme Corporation, priority 1998, dated 2006)
